Data from the supplement of paper PMC9663587.

How the values were obtained:
[1] = compound: CCc1cnn2c(NCc3ccc[n+]([O-])c3)cc(N3CCCC[C@H]3CCO)nc12
LEE011/Ribociclib [2] = compound: T1, CN(C)C(=O)c1cc2cnc(Nc3ccc(N4CCNCC4)cn3)nc2n1C1CCCC1 [LEE011/Ribociclib]
Doxorubicin = compound: COc1cccc2c1C(=O)c1c(O)c3c(c(O)c1C2=O)C[C@@](O)(C(=O)CO)C[C@@H]3O[C@H]1C[C@H](N)[C@H](O)[C@H](C)O1 [Doxorubicin]
Pictilisib/GDC0941 = compound: CS(=O)(=O)N1CCN(Cc2cc3nc(-c4cccc5[nH]ncc45)nc(N4CCOCC4)c3s2)CC1 [Pictilisib/GDC0941]
Ceritinib/LDK378 = compound: Cc1cc(Nc2ncc(Cl)c(Nc3ccccc3S(=O)(=O)C(C)C)n2)c(OC(C)C)cc1C1CCNCC1 [Ceritinib/LDK378]
[3] = compound: Cc1nn(C)c(COc2ccc(N3CCN(S(=O)(=O)N(C)C)CC3)cc2)c1-c1cccc2c(CCCOc3cccc4ccccc34)c(C(=O)O)n(CCN3CCOCC3)c12
YKL-5-124 = compound: C=CC(=O)Nc1ccc(C(=O)Nc2[nH]nc3c2CN(C(=O)N[C@H](CN(C)C)c2ccccc2)C3(C)C)cc1 [YKL-5-124]; test: increase in dead-cell fraction, 72 h; higher = more death;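 also: breast cancer cell lines in 384-well plates, stained with Hoechst plus LIVE/DEAD far red dye and imaged, cells above an LDR intensity threshold counted dead, Hoechst-negative corpses included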
BSJ-03-123 = compound: CC(=O)c1c(C)c2cnc(Nc3ccc(N4CCN(CCOCCOCCOCCNC(=O)COc5cccc6c5C(=O)N(C5CCC(=O)NC5=O)C6=O)CC4)cn3)nc2n(C2CCCC2)c1=O [BSJ-03-123]; test: as above
[4] = compound: CC(=O)c1c(C)c2cnc(Nc3ccc(N4CCNCC4)cn3)nc2n(C2CCCC2)c1=O; test: as above
[5] = compound: CCN1CCN(Cc2ccc(Nc3ncc(F)c(-c4cc(F)c5nc(C)n(C(C)C)c5c4)n3)nc2)CC1; test: as above
Neratinib/HKI272 = compound: CCOc1cc2ncc(C#N)c(Nc3ccc(OCc4ccccn4)c(Cl)c3)c2cc1NC(=O)/C=C/CN(C)C [Neratinib/HKI272]; test: as above
[6] = compound: CCc1cnn2c(NCc3ccc[n+]([O-])c3)cc(N3CCCC[C@H]3CCO)nc12; test: as above
LEE011/Ribociclib [7] = compound: T1, LEE011/Ribociclib; test: as above
THZ531 = compound: CN(C)C/C=C/C(=O)Nc1ccc(C(=O)N2CCC[C@@H](Nc3ncc(Cl)c(-c4c[nH]c5ccccc45)n3)C2)cc1 [THZ531]; test: as above
THZ1 = compound: CN(C)C/C=C/C(=O)Nc1ccc(C(=O)Nc2cccc(Nc3ncc(Cl)c(-c4c[nH]c5ccccc45)n3)c2)cc1 [THZ1]; test: as above
Flavopiridol = compound: CN1CC[C@H](c2c(O)cc(O)c3c(=O)cc(-c4ccccc4Cl)oc23)[C@H](O)C1 [Flavopiridol]; test: as above
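For GR50, 72 h in this document: breast cancer and non-malignant breast epithelial cell lines, Deep Dye Drop or Dye Drop imaging, nine half-log doses, GR normalized to time-zero plates and DMSO-only controls.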

HCC1954
GR50, 72 h [1]: 0.0126 µM
GR50, 72 h (LEE011/Ribociclib [2]): > 10 µM
GR50, 72 h (Doxorubicin): 0.00718 µM
GR50, 72 h (Pictilisib/GDC0941): 0.944 µM
GR50, 72 h (Ceritinib/LDK378): 2.33 µM
GR50, 72 h [3]: > 10 µM
increase in dead-cell fraction (YKL-5-124; 0.001 µM): 0.076
increase in dead-cell fraction (YKL-5-124; 0.003162 µM): 0.0781
increase in dead-cell fraction (YKL-5-124; 0.01 µM): 0.11
increase in dead-cell fraction (YKL-5-124; 0.03162 µM): 0.0779
increase in dead-cell fraction (YKL-5-124; 0.1 µM): 0.129
increase in dead-cell fraction (YKL-5-124; 0.3162 µM): 0.104
increase in dead-cell fraction (YKL-5-124; 1 µM): 0.102
increase in dead-cell fraction (YKL-5-124; 3.162 µM): 0.0854
increase in dead-cell fraction (YKL-5-124; 10 µM): 0.15
increase in dead-cell fraction (BSJ-03-123; 0.001 µM): 0.0014
increase in dead-cell fraction (BSJ-03-123; 0.003162 µM): 0.0109
increase in dead-cell fraction (BSJ-03-123; 0.01 µM): 0.0001
increase in dead-cell fraction (BSJ-03-123; 0.03162 µM): 0.004
increase in dead-cell fraction (BSJ-03-123; 0.1 µM): 0.0138
increase in dead-cell fraction (BSJ-03-123; 0.3162 µM): 0.0101
increase in dead-cell fraction (BSJ-03-123; 1 µM): 0.0096
increase in dead-cell fraction (BSJ-03-123; 3.162 µM): 0.0252
increase in dead-cell fraction (BSJ-03-123; 10 µM): 0.141
increase in dead-cell fraction ([4]; 0.0003162 µM): -0.0089
increase in dead-cell fraction ([4]; 0.001 µM): -0.001
increase in dead-cell fraction ([4]; 0.003162 µM): -0.0131
increase in dead-cell fraction ([4]; 0.01 µM): -0.0027
increase in dead-cell fraction ([4]; 0.03162 µM): -0.0121
increase in dead-cell fraction ([4]; 0.1 µM): -0.0026
increase in dead-cell fraction ([4]; 0.3162 µM): -0.0021
increase in dead-cell fraction ([4]; 1 µM): -0.0019
increase in dead-cell fraction ([4]; 3.162 µM): 0.0043
increase in dead-cell fraction ([5]; 0.001 µM): -0.0023
increase in dead-cell fraction ([5]; 0.003162 µM): -0.0166
increase in dead-cell fraction ([5]; 0.01 µM): -0.0193
increase in dead-cell fraction ([5]; 0.03162 µM): -0.0017
increase in dead-cell fraction ([5]; 0.1 µM): -0.0058
increase in dead-cell fraction ([5]; 0.3162 µM): -0.0054
increase in dead-cell fraction ([5]; 1 µM): 0.0303
increase in dead-cell fraction ([5]; 3.162 µM): 0.11
increase in dead-cell fraction ([5]; 10 µM): 0.683
increase in dead-cell fraction (Neratinib/HKI272; 0.0003162 µM): 0.0018
increase in dead-cell fraction (Neratinib/HKI272; 0.001 µM): 0.0012
increase in dead-cell fraction (Neratinib/HKI272; 0.003162 µM): 0.0264
increase in dead-cell fraction (Neratinib/HKI272; 0.01 µM): 0.0121
increase in dead-cell fraction (Neratinib/HKI272; 0.03162 µM): 0.0581
increase in dead-cell fraction (Neratinib/HKI272; 0.1 µM): 0.111
increase in dead-cell fraction (Neratinib/HKI272; 0.3162 µM): 0.17
increase in dead-cell fraction (Neratinib/HKI272; 1 µM): 0.264
increase in dead-cell fraction (Neratinib/HKI272; 3.162 µM): 0.42
increase in dead-cell fraction ([6]; 0.0001 µM): -0.0062
increase in dead-cell fraction ([6]; 0.0003162 µM): -0.012
increase in dead-cell fraction ([6]; 0.001 µM): -0.0086
increase in dead-cell fraction ([6]; 0.003162 µM): -0.0038
increase in dead-cell fraction ([6]; 0.01 µM): 0.0856
increase in dead-cell fraction ([6]; 0.03162 µM): 0.615
increase in dead-cell fraction ([6]; 0.1 µM): 0.704
increase in dead-cell fraction ([6]; 0.3162 µM): 0.691
increase in dead-cell fraction ([6]; 1 µM): 0.7
increase in dead-cell fraction (LEE011/Ribociclib [7]; 0.001 µM): 0.0048
increase in dead-cell fraction (LEE011/Ribociclib [7]; 0.003162 µM): 0.0062
increase in dead-cell fraction (LEE011/Ribociclib [7]; 0.01 µM): -0.0065
increase in dead-cell fraction (LEE011/Ribociclib [7]; 0.03162 µM): 0.0067
increase in dead-cell fraction (LEE011/Ribociclib [7]; 0.1 µM): 0.006
increase in dead-cell fraction (LEE011/Ribociclib [7]; 0.3162 µM): 0.0179
increase in dead-cell fraction (LEE011/Ribociclib [7]; 1 µM): 0.0102
increase in dead-cell fraction (LEE011/Ribociclib [7]; 3.162 µM): 0.0144
increase in dead-cell fraction (LEE011/Ribociclib [7]; 10 µM): 0.0111
increase in dead-cell fraction (THZ531; 0.0001 µM): 0.0002
increase in dead-cell fraction (THZ531; 0.0003162 µM): 0.0055
increase in dead-cell fraction (THZ531; 0.001 µM): 0.0013
increase in dead-cell fraction (THZ531; 0.003162 µM): 0.0058
increase in dead-cell fraction (THZ531; 0.01 µM): 0.0048
increase in dead-cell fraction (THZ531; 0.03162 µM): 0.004
increase in dead-cell fraction (THZ531; 0.1 µM): 0.0127
increase in dead-cell fraction (THZ531; 0.3162 µM): 0.0525
increase in dead-cell fraction (THZ531; 1 µM): 0.42
increase in dead-cell fraction (THZ1; 0.0001 µM): -0.0011
increase in dead-cell fraction (THZ1; 0.0003162 µM): 0.0018
increase in dead-cell fraction (THZ1; 0.001 µM): 0.0068
increase in dead-cell fraction (THZ1; 0.003162 µM): -0.0006
increase in dead-cell fraction (THZ1; 0.01 µM): -0.0054
increase in dead-cell fraction (THZ1; 0.03162 µM): 0.0087
increase in dead-cell fraction (THZ1; 0.1 µM): 0.0688
increase in dead-cell fraction (THZ1; 0.3162 µM): 0.153
increase in dead-cell fraction (THZ1; 1 µM): 0.596
increase in dead-cell fraction (Flavopiridol; 0.0001 µM): 0.0057
increase in dead-cell fraction (Flavopiridol; 0.0003162 µM): 0.0003
increase in dead-cell fraction (Flavopiridol; 0.001 µM): 0.0047
increase in dead-cell fraction (Flavopiridol; 0.003162 µM): 0.0096
increase in dead-cell fraction (Flavopiridol; 0.01 µM): 0.0025
increase in dead-cell fraction (Flavopiridol; 0.03162 µM): 0.0079
increase in dead-cell fraction (Flavopiridol; 0.1 µM): 0.03
increase in dead-cell fraction (Flavopiridol; 0.3162 µM): 0.143
increase in dead-cell fraction (Flavopiridol; 1 µM): 0.733
